# Test results: PubChem BioAssay AID248 (DTP/NCI, 2004)
# Values joined by “and” are separate entries in the source; they are usually repeats but may differ in a detail not shown here. Equal entries are not always repeated. Toxic doses and inconclusive results are not listed.
# Tested on: L1210 leukemia ip in BDF1 mice, survival T/C
# Assay: NCI In Vivo Anticancer Drug Screen. Data for tumor model L1210 Leukemia (intraperitoneal) in B6D2F1 (BDF1) mice
# Conditions: endpoint: mean survival time, higher = longer survival
# Summary of the method: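 Each compound was tested against a transplantable tumor grown in mice. The endpoint was survival, with treated animals benchmarked against vehicle controls as a simple ratio.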
# [1] = dose: 100.0 mg/kg/injection, schedule: Q01DX009 (ip), vehicle: saline
# [2] = dose: 100.0 mg/kg/injection, schedule: Q04DX003 (ip), vehicle: saline
# [3] = dose: 200.0 mg/kg/injection, schedule: Q04DX003 (ip), vehicle: saline
# [4] = dose: 100.0 mg/kg/injection, schedule: Q04DX003 (ip), vehicle: saline with Tween-80
# [5] = dose: 200.0 mg/kg/injection, schedule: Q04DX003 (ip), vehicle: saline with Tween-80
# [6] = dose: 400.0 mg/kg/injection, schedule: Q04DX003 (ip), vehicle: saline with Tween-80
# [7] = dose: 50.0 mg/kg/injection, schedule: Q01DX009 (ip), vehicle: saline
smiles,measurement,setting,value
OC1(c2ccc(Cl)cc2)CCN(C2CC2c2ccccc2)CC1 (stereo not drawn),T/C,"dose: 100.0 mg/kg/injection, schedule: Q01DX001 (ip), vehicle: Klucel (hydroxypropylcellulose) (HPC)",98 % of control
same,T/C,"dose: 200.0 mg/kg/injection, schedule: Q01DX001 (ip), vehicle: Klucel (hydroxypropylcellulose) (HPC)",97 % of control
same,T/C,"dose: 400.0 mg/kg/injection, schedule: Q01DX001 (ip), vehicle: Klucel (hydroxypropylcellulose) (HPC)",98 % of control
COc1cc(-c2ccc(-[n+]3nc(-c4ccc([N+](=O)[O-])cc4)nn3-c3ccc([N+](=O)[O-])cc3)c(OC)c2)ccc1-[n+]1nc(-c2ccc([N+](=O)[O-])cc2)nn1-c1ccc([N+](=O)[O-])cc1,T/C,"dose: 15.0 mg/kg/injection, schedule: Q01DX001 (ip), vehicle: carboxymethylcellulose (CMC)",89 % of control
same,T/C,"dose: 30.0 mg/kg/injection, schedule: Q01DX001 (ip), vehicle: carboxymethylcellulose (CMC)",104 % of control
same,T/C,"dose: 60.0 mg/kg/injection, schedule: Q01DX001 (ip), vehicle: carboxymethylcellulose (CMC)",93 % of control
CN(C)c1ccc(C=Nc2cc(Cl)ccc2O)cc1,T/C,"dose: 100.0 mg/kg/injection, schedule: Q01DX001 (ip), vehicle: saline",107 % of control
same,T/C,"dose: 200.0 mg/kg/injection, schedule: Q01DX001 (ip), vehicle: saline",100 % of control
same,T/C,"dose: 400.0 mg/kg/injection, schedule: Q01DX001 (ip), vehicle: saline",100 % of control
CCCCCCC1CCC(O)C1CCCCCCC(=O)O (stereo not drawn),T/C,"dose: 50.0 mg/kg/injection, schedule: Q04DX002 (ip), vehicle: saline",98 % of control
same,T/C,"dose: 100.0 mg/kg/injection, schedule: Q04DX002 (ip), vehicle: saline",91 % of control
same,T/C,"dose: 200.0 mg/kg/injection, schedule: Q04DX002 (ip), vehicle: saline",91 % of control
COC(=O)c1cc([N+](=O)[O-])ccc1Cl,T/C,[1],87 % of control
same,T/C,[2],98 % of control
same,T/C,"dose: 200.0 mg/kg/injection, schedule: Q01DX009 (ip), vehicle: saline",95 % of control
same,T/C,[3],97 % of control
same,T/C,"dose: 400.0 mg/kg/injection, schedule: Q01DX009 (ip), vehicle: saline",101 % of control
same,T/C,"dose: 400.0 mg/kg/injection, schedule: Q04DX003 (ip), vehicle: saline",95 % of control
C[CH2][Ge]([Cl])([CH2]C)[CH2]C,T/C,"dose: 50.0 mg/kg/injection, schedule: Q04DX003 (ip), vehicle: saline with Tween-80",99 % of control
CC(C)C1=CCC(OC(=O)c2ccc(NC(=S)Nc3ccccc3)cc2)CC1 (stereo not drawn),T/C,[4],92 % of control
same,T/C,[5],96 % of control
same,T/C,[6],89 % of control
Cc1ccc(C(SCC(N)C(=O)O)(c2ccc(C)cc2)c2ccc(C)cc2)cc1 (stereo not drawn),T/C,"dose: 4.8 mg/kg/injection, schedule: Q01DX009 (ip), vehicle: saline",95 % of control
same,T/C,"dose: 6.5 mg/kg/injection, schedule: Q01DX009 (ip), vehicle: saline",108 % of control
same,T/C,"dose: 7.2 mg/kg/injection, schedule: Q01DX009 (ip), vehicle: saline",104 % of control
same,T/C,"dose: 12.5 mg/kg/injection, schedule: Q01DX009 (ip), vehicle: saline",123 % of control
same,T/C,"dose: 50.0 mg/kg/injection, schedule: Q01DX009 (ip), vehicle: other",120 % of control
same,T/C,[7],157 % of control
same,T/C,[1],221 % of control
same,T/C,"dose: 400.0 mg/kg/injection, schedule: Q01DX009 (ip), vehicle: other",94 % of control
CC(C)CN(CC(C)C)c1ccc([N+](=O)[O-])cc1[N+](=O)[O-],T/C,[4],94 % of control
same,T/C,[5],98 % of control
same,T/C,[6],96 % of control
CC(NC(=O)c1ccccc1)C(=O)NC(CSC(c1ccccc1)c1ccccc1)C(=O)O (stereo not drawn),T/C,"dose: 25.0 mg/kg/injection, schedule: Q01DX009 (ip), vehicle: saline",102 % of control
same,T/C,[7],100 % of control
same,T/C,[1],93 % of control and 90 % of control
same,T/C,[2],94 % of control
same,T/C,[3],100 % of control
O=C1C2=C(C(=O)c3ccccc31)C1C=CC2CC1,T/C,"dose: 50.0 mg/kg/injection, schedule: Q01DX001 (ip), vehicle: carboxymethylcellulose (CMC)",111 % of control
same,T/C,"dose: 100.0 mg/kg/injection, schedule: Q01DX001 (ip), vehicle: carboxymethylcellulose (CMC)",101 % of control
CCOc1ccc(/C=N/NC(=O)COCC(=O)N/N=C/c2ccc(OCC)c(OC)c2)cc1OC,T/C,"dose: 100.0 mg/kg/injection, schedule: Q01DX009 (ip), vehicle: Klucel (hydroxypropylcellulose) (HPC)",92 % of control
same,T/C,"dose: 200.0 mg/kg/injection, schedule: Q01DX009 (ip), vehicle: Klucel (hydroxypropylcellulose) (HPC)",87 % of control
same,T/C,"dose: 400.0 mg/kg/injection, schedule: Q01DX009 (ip), vehicle: Klucel (hydroxypropylcellulose) (HPC)",103 % of control
